Test results from patent publication US5567693A, “Method for inhibiting angiogenesis, proliferation of endothelial or tumor cells and tumor growth” (American Cyanamid Company, priority 1994, dated 1996).
Several values for one entry are separate records, joined by “and”; a condition that tells them apart may be missing. Equal values may be shown once. Where a name gives a salt, the structure may show the parent alone. Read-outs that look alike come from different tables or passages of the source.

Tests used:
angiogenesis = conditions: Brem et al, cited from earlier work; for inhibition of angiogenesis: WO92/12717
A2780S = test: Antiproliferative activity in human tumor cell lines: A2780S (ovarian); assay type: cell-based; conditions: PROTOCOL 1 and PROTOCOL 2, 48 hours
Description: (§1) The assays are identified as follows:
(§2) PROTOCOL 1,2,and 3 are described in greater detail hereinbelow. In general, according to PROTOCOLS 1 and 2, the target ABAE and/or Human Tumor cells are exposed to the compounds of Formula I for 48 hours. PROTOCOL 3 exposes ABAE cells to the compounds for 4 days. A detailed description of the protocols is as follows:
(§3) The antiproliferative activity of the compounds of Formula I of the present invention is evaluated in a panel comprised of human tumor cell lines and an adult bovine aortic endothelial cell line (ABAE). The human tumor cell lines are from
(§4) Cultures are renewed after 20 passages with cells from a fresh stock of batch-frozen early passage cells. Cell lines are routinely checked for mycoplasma contamination (Genprobe). In a laminar flow hood, cells (1-5×10^4) are plated into 96-well microtiter plates in a volume of 0.1 ml/well with a bulk microtiter dispenser (Denley). […] Compounds are added using a Tomtec dispenser which simultaneously dispenses from one 96-well plate, containing the drug dilutions, to the plates containing the cells. After two days of continuous drug exposure, 50% cold trichloroacetic acid (TCA) is added to 10% final concentration to fix the cells, and after 60 minutes at 4° C., the TCA is aspirated and the plates are washed 5 times with deionized water using a microtiter plate washer. […] A 0.4% solution of the dye, sulforhodamine B, in […] is added to the plates, and the plates are washed 5 times with 1% glacial acetic acid using the automatic plate washed. The bound stain is solubilized with 0.1 ml of 10 mM Tris base. The optical densities are read from an automatic spectrophotometric plate reader (Dynatech) directly to a main frame computer (VAX 8600).
(§5) Positive controls, that include standard chemotherapeutic drugs (i.e., Adriamycin, Cisplatin, etc.), are included in every experiment.
(§6) Background optical density measurements (complete media-cells, and complete media+drug-cells) are automatically subtracted from the appropriate control and test wells. Mean values and standard errors are determined from duplicate wells. A measure is also made of the optical density at time when the drugs are added. The number of cells after treatment (P), as % of control, is calculated for every concentration of drug, as follows: [formula] wherein: T is optical density measurement for treated cells after 48 hours;
(§7) C is optical density measurement for untreated cells after 48 hours;
(§8) Co is optical density measurement for cells at the time of drug addition.
(§9) IC50 of growth inhibition is calculated from the sets of P values using the RS-1 data package (BBN Software).
(§10) The antiproliferative activity of the compounds of Formula I is evaluated in a panel comprised of human tumor cell lines and an adult bovine aortic cell line (ABAE) as listed in PROTOCOL 1. This assay is a modification of PROTOCOL 1. The modifications include:
(§11) 1) each concentration for each compound is tested in a single well;
(§12) 2) compounds are tested at 20, 4, 0.8, 0.16 microgram/ml and additionally in some experiments at 100 and 0.32 microgram/ml;
(§13) 3) samples are pipetted into a 96-well plate for each of the cell lines by a Beckman Biomek 1000 SL robot;
(§14) 4) after fixing with TCA each well is washed with 0.35 ml distilled water twice, not five times;
(§15) 5) after staining with sulforhodamine B each well is washed 3 times, not five times;
(§16) 6) the growth inhibition (I) as % of control, is calculated using the RS-1 data package (BBN Software), for every concentration of drug, as follows: [formula] wherein: T is optical density measurement for treated cells after 48 hours;
(§17) 7) IC50 of growth inhibition is determined graphically from dose response curves, as is known in the art.

SW620 = test: Antiproliferative activity in human tumor cell lines: SW620 (colon); assay type: cell-based; conditions: SW-620, SW620 colon tumor, PROTOCOL 1 and PROTOCOL 2, 48 hours, read-out: IC50
Description: (§18) The antiproliferative activity of the compounds of Formula I in an Adult Bovine Aortic Endothelial (ABAE) cell line and in Human Tumor cell lines is evaluated in three similar assays that measure growth inhibition. The assays are identified as follows:
as §2, §3
(§19) All cell lines are maintained in log phase in RPMI 1640 media, supplemented with 5% fetal calf serum, penicillin/streptomycin and 2 mM L-glutamine. Cultures are renewed after 20 passages with cells from a fresh stock of batch-frozen early passage cells. Cell lines are routinely checked for mycoplasma contamination (Genprobe). In a laminar flow hood, cells (1-5×10^4) are plated into 96-well microtiter plates in a volume of 0.1 ml/well with a bulk microtiter dispenser (Denley). […] At this concentration, dimethylsulfoxide has no effect on cell growth. Compounds are added using a Tomtec dispenser which simultaneously dispenses from one 96-well plate, containing the drug dilutions, to the plates containing the cells. After two days of continuous drug exposure, 50% cold trichloroacetic acid (TCA) is added to 10% final concentration to fix the cells, and after 60 minutes at 4° C., the TCA is aspirated and the plates are washed 5 times with deionized water using a microtiter plate washer. The number of cells on the plate are quantitated using a protein dye-binding assay (Monks et al., 1991). A 0.4% solution of the dye, sulforhodamine B, in glacial acetic acid is added to the plates, and the plates are washed 5 times with 1% glacial acetic acid using the automatic plate washed. The bound stain is solubilized with 0.1 ml of 10 mM Tris base. The optical densities are read from an automatic spectrophotometric plate reader (Dynatech) directly to a main frame computer (VAX 8600).
as §5, §6, §7, §8, §9, §10, §11, §12, §13, §14
(§20) 5) after staining with sulforhodamine B each well is washed 3 times, not five times; […]

Human Tumor cell lines = test: Antiproliferative activity in the panel of human tumor cell lines; assay type: cell-based; conditions: Homo sapiens; average over the 6 tumor cell lines
Description: as §18, §2, §3, §19, §5, §6, §7, §8, §9, §10, §11, §12, §13, §14, §20

[1] = system: Adult Bovine Aortic Endothelial (ABAE) cell line; test: Antiproliferative activity in ABAE cell line, PROTOCOL 2; assay type: cell-based; conditions: PROTOCOL 2, 48 hours
Description: as §18, §2
Antiproliferative Activity in Human Tumor and Adult Bovine Aortic Endothelial Cell Lines (ABAE)
as §10, §11, §12, §13, §14, §15, §16, §7, §17
Table 1 presents the results depicting the antiproliferative activity of the compounds of Formula I against an Adult Bovine Aortic Endothelial cell line (ABAE), as evaluated by PROTOCOL 1 and 2. The results are presented in terms of IC50 and are as follows.

HTB 161 = test: Antiproliferative activity in human tumor cell lines: HTB 161 (ovarian); assay type: cell-based; conditions: HTB 161 ovarian tumor, PROTOCOL 1 and PROTOCOL 2, 48 hours
Description: as §1, §2, §3, §4, §5, §6, §7, §8, §9, §10, §11, §12, §13, §14, §15, §16, §17

A2780/DDP = test: Antiproliferative activity in human tumor cell lines: A2780/DDP (ovarian); assay type: cell-based; conditions: PROTOCOL 1 and PROTOCOL 2, 48 hours
Description: as §1, §2, §3, §4, §5, §6, §7, §8, §9, §10, §11, §12, §13, §14, §15, §16, §17

CACO2 = test: Antiproliferative activity in human tumor cell lines: CACO2 (colon); assay type: cell-based; conditions: CACO2 colon tumor, PROTOCOL 1 and PROTOCOL 2, 48 hours
Description: as §18, §2, §3, §19, §5, §6, §7, §8, §9, §10, §11, §12, §13, §14, §20

MIP = test: Antiproliferative activity in human tumor cell lines: MIP (colon); assay type: cell-based; conditions: PROTOCOL 1 and PROTOCOL 2, 48 hours
Description: as §18, §2, §3, §19, §5, §6, §7, §8, §9, §10, §11, §12, §13, §14, §20

[2] = system: Adult Bovine Aortic Endothelial (ABAE) cell line; test: Antiproliferative activity in ABAE cell line, PROTOCOL 3 (4 day assay); assay type: cell-based; conditions: 4 day assay (PROTOCOL 3)
Description: as §18, §2
Antiproliferative Activity in Adult Bovine Aortic Endothelial (ABAE) Cell Line
ABAE cells are grown in DMEMmedia (Mediatech, Washington, D.C.) supplemented with 10% calf serum (Hyclone). ABAE cells are plated in 24-well dishes at 8,000 cells/well, followed by the addition of increasing concentrations of 7-(hydrogen or di(C1 -C4)alkylamino)-8-halogen-9-(substituted)-6-demethyl-6-deoxytetracycline. After four days, the cells are detached and counted. […] The growth inhibition (I) as % of control is calculated as follows: [formula] wherein: Nc is the number of cells in untreated wells;
Nt is the number of cells in treated wells;
No is the number of plated cells.
IC50 of growth inhibition is determined from the sets of I values plotted by Kaleidograph software (Abelbeck Software).
In addition FIG. 1, presents the dose response curve for the compound of Example 10 for the above ABAE cell line obtained by using PROTOCOL 3.

tumor growth = conditions: in conjunction with cancer chemotherapy or radiation therapy; Teicher et al; cited from earlier work
[3] = Homo sapiens, Caco-2, read-out: IC50

| Compound | inhibition of angiogenesis (angiogenesis) | IC50 (A2780S) [µg/mL] | IC50 (SW620) [µg/mL] | IC50 (Human Tumor cell lines) [µg/mL] | IC50 ([1]; Bos taurus, read-out: IC50) [µg/mL] | IC50 (HTB 161) [µg/mL] | IC50 (A2780/DDP) [µg/mL] | IC50 (CACO2; [3]) [µg/mL] | IC50 (MIP) [µg/mL] | other results |
| --- | --- | --- | --- | --- | --- | --- | --- | --- | --- | --- |
| CN(C)[C@@H]1C(O)=C(C(N)=O)C(=O)[C@@]2(O)C(O)=C3C(=O)c4c(O)ccc(Cl)c4[C@@](C)(O)[C@H]3C[C@@H]12 [Chlortetracycline] | useful as inhibitors of angiogenesis |  |  |  |  |  |  |  |  |  |
| CN(C)[C@@H]1C(O)=C(C(N)=O)C(=O)[C@@]2(O)C(O)=C3C(=O)c4c(O)ccc(Cl)c4[C@@H](O)[C@H]3C[C@@H]12 [Demeclocycline] | useful as inhibitors of angiogenesis |  |  |  |  |  |  |  |  |  |
| CC(C(=O)Nc1c(Cl)cc2c(c1O)C(=O)C1=C(O)[C@]3(O)C(=O)C(C(N)=O)=C(O)[C@@H](N(C)C)C3CC1C2)N1CCCC1 (stereo partly drawn) [Example 13, 7S-(7α,10aα)]-N-[9-(Aminocarbonyl)-3-chloro-7-(dimethylamino)-5,5a,6,6a,7,10,10a,12-octahydro-1,8,10a,11-tetrahydroxy-10,12-dioxo-2-naphthacenyl]-α-methyl-1-pyrrolidineacetamide dihydrochloride] |  | 1 | 1 | 1.3 | 3 | 1 | 1 | 3 |  |  |
| CC(C(=O)Nc1c(Cl)cc2c(c1O)C(=O)C1=C(O)[C@]3(O)C(=O)C(C(N)=O)=C(O)[C@@H](N(C)C)C3CC1C2)N1CCCCC1 (stereo partly drawn) [Example 14, 7S-(7α, 10aα)]-N-[9-(Aminocarbonyl)-3-chloro-7-(dimethylamino)-5,5a,6,6a,7,10,10a,12-octahydro-1,8,10a,11-tetrahydroxy-10,12-dioxo-2-naphthacenyl]-α-methyl-1-piperidineacetamide dihydrochloride] |  | < 0.16 | < 0.16 |  | < 0.8 | < 0.16 | < 0.16 | 0.7 | < 0.16 |  |
| CC(C)NCC(=O)Nc1c(Cl)cc2c(c1O)C(=O)C1=C(O)[C@]3(O)C(=O)C(C(N)=O)=C(O)[C@@H](N(C)C)C3CC1C2 (stereo partly drawn) [Example 15, [4S-(4α,12aα)]-8-Chloro-4-(dimethylamino)-1,4,4a,5,5a,6,11,12a,-octahydro-3,10,12,12a-tetrahydroxy-1,11-dioxo-9-[[[(1-methylethyl)amino]acetyl]amino]-2-naphthacenecarboxamide dihydrochloride] |  |  |  |  | < 1 |  |  |  |  |  |
| CCC(C(=O)Nc1c(Cl)cc2c(c1O)C(=O)C1=C(O)[C@]3(O)C(=O)C(C(N)=O)=C(O)[C@@H](N(C)C)C3CC1C2)N(C)C (stereo partly shown) [Example 18, dihydrochloride] |  |  | 3 | 4.8 | 16 | 3 | 3 | 11 | 4 |  |
| CCC(C(=O)Nc1c(Cl)cc2c(c1O)C(=O)C1=C(O)[C@]3(O)C(=O)C(C(N)=O)=C(O)[C@@H](N(C)C)C3CC1C2)N1CCCC1 (stereo partly shown) [Example 19, dihydrochloride] |  | 1 | 3 | 2.3 | 4 | 2 | 1 | 4 | 3 |  |
| CN(C)[C@@H]1C(O)=C(C(=O)NCNCCCC[C@H](N)C(=O)O)C(=O)[C@@]2(O)C(O)=C3C(=O)c4c(O)cccc4[C@@](C)(O)[C@H]3C[C@@H]12 [Lymecycline] | useful as inhibitors of angiogenesis |  |  |  |  |  |  |  |  |  |
| CN(C)c1ccc(O)c2c1C[C@H]1C[C@H]3[C@H](N(C)C)C(O)=C(C(N)=O)C(=O)[C@@]3(O)C(O)=C1C2=O [Minocycline] | useful as inhibitors of angiogenesis |  |  |  |  |  |  |  |  | inhibition of angiogenesis compared with combination therapy of heparin and cortisone (angiogenesis; Cancer Research 51, 672-675): inhibits angiogenesis to an extent comparable to that of the combination therapy of heparin and cortisone; activity upon incubation with cells [2]: loosing its activity upon incubation with cells; number of metastases (tumor growth): the number of metastases is reduced; tumor growth (tumor growth): tumor growth is decreased |
| [4S-(4α,12aα)]-8 -Chloro-4-(dimethylamino)-9-[[(2-(dimethylamino) -1-oxopropyl]amino]-1,4,4a,5,5a,6,11,12a-octahydro-3,10,12,12a-tetrahydroxy-1,11-dioxo-9-[[[(1-methylethyl)amino]acetyl]amino]-2-naphthacenecarboxamide dihydrochloride [Example 16] |  |  |  |  |  |  |  |  |  | IC50 [1]: 3 µg/mL; IC50 (CACO2; dihydrochloride): 4.0 µg/mL and 8.0 µg/mL |
